Measured values: patent publication US9365572B2, “PI3K and/or mTOR inhibitor” (XUANZHU PHARMA CO., LTD., priority 2012, dated 2016)

What was measured:
Melatonin MT1 = Melatonin MT1 (Homo sapiens (Human), UniProt P48039); assay: Radioligand binding assay No. 251600; settings: test substance 10 μM, read-out: Inhibitory rate (%), Melatonin MT1
Dopamine D1 = Dopamine D1 (Homo sapiens (Human), UniProt P21728); assay: Radioligand binding assay No. 219500; settings: test substance 10 μM, read-out: Inhibitory rate (%), Dopamine D1
Nicotinic Acetylcholine = assay: Radioligand binding assay No. 258590; settings: test substance 10 μM; Human
Purinergic P2Y = assay: Radioligand binding assay No. 268810; settings: test substance 10 μM; rat
[1] = molecular target: Transporter, Norepinephrine (NET) (Homo sapiens (Human), UniProt P23975); assay: Radioligand binding assay No. 204410; settings: test substance 10 μM, read-out: Inhibitory rate (%), Transporter, Norepinephrine (NET)
Adrenergic α2A = Adrenergic α2A (Homo sapiens (Human), UniProt P08913); assay: Radioligand binding assay No. 203620; settings: test substance 10 μM, read-out: Inhibitory rate (%), Adrenergic α2A
Calcium Channel N-Type = Calcium Channel N-Type (Rattus norvegicus (Rat), UniProt Q02294); assay: Radioligand binding assay No. 216000; settings: test substance 10 μM, read-out: Inhibitory rate (%), Calcium Channel N-Type
Adrenergic α1B = Adrenergic α1B (Rattus norvegicus (Rat), UniProt P15823); assay: Radioligand binding assay No. 203200; settings: test substance 10 μM, read-out: Inhibitory rate (%), Adrenergic α1B
Opiate κ(OP2, KOP) = Opiate κ(OP2, KOP) (Homo sapiens (Human), UniProt P41145); assay: Radioligand binding assay No. 260210; settings: test substance 10 μM, read-out: Inhibitory rate (%), Opiate κ(OP2, KOP)
[2] = test system: non-kinase drug target ligands listed in Table 5; assay: Drug target radioligand competitive binding assay, whole panel of Table 5; settings: test substance 10 μM, summary of Table 5
[3] = In vivo pharmacokinetics assay in rat; settings: male, SD, plasma, rats; for Vd: read-out: Vss; for bioavailability: P.O 4 mg/kg vs I.V 2 mg/kg, read-out: F % (absolute bioavailability)
Source text: Test animals: male SD rats, weighing 190-260 g. Intravenous bolus injection (I.V.) and gavage (P.O.) administrations were each applied to three rats.
Compound 5, for both I.V and P.O administrations, was solubilized with a solution of 30% DMF+50% PEG400+20%(0.9% sodium chloride injection)(the pH being adjusted with a suitable amount of an aqueous hydrochloric acid solution (2 mol/L)).
Compound 6, for both I.V and P.O administrations, was solubilized with a solution of 30% DMF+30% PEG400+5%0.1 mol/lhydrochloric acid+[…] normal saline.
Compound 30 for I.V administration was solubilized with a solution of 30% DMF+50% PEG400+20% normal saline; Compound 30 for P.O administration was solubilized with a solution of 5% DMSO+30% polyoxyethylene castor oil+65% normal saline.
Compound 30 hydrochloride for I.V administration was solubilized with a solution of 30% DMF+50% PEG400+20% sterile water for injection.
I.V blood sampling time point: 0.083 h, 0.25 h, 0.5 h, 1 h, 2 h, 4 h, 6 h, 8 h and 24 h after the administration, P.O blood sampling time point: 0.17 h, 0.5 h, 1 h, 2 h, 4 h, 6 h, 8 h and 24 h after the administration.
About 100 μl of whole blood was taken at each time point, anticoagulated with heparin sodium, and centrifugated at 8,000 rpm in a high-speed centrifuge for 6 minutes to separate plasma, and the resulting plasma was frozen at −80° C. in a refrigerator.
The plasma sample was treated with a liquid-liquid extraction. 20 μL of plasma was taken. A solution of BEZ-235 (Novartis, Phase II) in tertbutylmethylether (600 μL, 10 ng/mL) was added as internal standard. The mixture was rotated vertically at 1500 rpm for 10 mins and then centrifugated at 12000 rpm for 5 mins. 400 μL of the supernate was taken and dried under nitrogen. The dried substance was redissolved in 200 μL methanol:water (7:3, V/V) for LC-MS/MS analysis.
Calculation Absolute bioavailability F%=[AUC]last (P.O)*Dose(I.V)/[AUC]last (I.V)*Dose(P.O)

Histamine H3 = Histamine H3 (Homo sapiens (Human), UniProt Q9Y5N1); assay: Radioligand binding assay No. 239820; settings: test substance 10 μM, read-out: Inhibitory rate (%), Histamine H3
Histamine H3, sequence (Q9Y5N1 whole entry): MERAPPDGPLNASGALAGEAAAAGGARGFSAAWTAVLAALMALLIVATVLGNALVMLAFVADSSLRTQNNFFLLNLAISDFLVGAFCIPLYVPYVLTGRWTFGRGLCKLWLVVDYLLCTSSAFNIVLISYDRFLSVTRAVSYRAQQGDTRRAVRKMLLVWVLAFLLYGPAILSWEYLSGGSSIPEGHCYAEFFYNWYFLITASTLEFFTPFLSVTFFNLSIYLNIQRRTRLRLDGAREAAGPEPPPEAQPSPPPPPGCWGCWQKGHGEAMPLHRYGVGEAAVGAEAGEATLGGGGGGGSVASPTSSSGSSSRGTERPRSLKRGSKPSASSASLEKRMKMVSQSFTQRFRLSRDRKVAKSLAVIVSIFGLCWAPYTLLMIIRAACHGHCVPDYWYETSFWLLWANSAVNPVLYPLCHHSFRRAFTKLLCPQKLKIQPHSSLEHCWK

Opiate κ(OP2, KOP), sequence (P41145 whole entry): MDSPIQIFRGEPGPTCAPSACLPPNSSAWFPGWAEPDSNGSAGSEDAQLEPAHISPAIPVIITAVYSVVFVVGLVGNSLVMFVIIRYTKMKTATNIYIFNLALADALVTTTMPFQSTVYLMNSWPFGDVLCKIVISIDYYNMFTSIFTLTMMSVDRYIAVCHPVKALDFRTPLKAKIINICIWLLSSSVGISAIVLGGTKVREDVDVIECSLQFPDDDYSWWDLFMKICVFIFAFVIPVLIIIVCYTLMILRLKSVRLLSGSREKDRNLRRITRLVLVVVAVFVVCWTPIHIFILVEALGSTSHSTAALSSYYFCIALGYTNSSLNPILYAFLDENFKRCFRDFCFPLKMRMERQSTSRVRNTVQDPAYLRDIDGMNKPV
Transporter, Norepinephrine (NET), sequence (P23975 whole entry): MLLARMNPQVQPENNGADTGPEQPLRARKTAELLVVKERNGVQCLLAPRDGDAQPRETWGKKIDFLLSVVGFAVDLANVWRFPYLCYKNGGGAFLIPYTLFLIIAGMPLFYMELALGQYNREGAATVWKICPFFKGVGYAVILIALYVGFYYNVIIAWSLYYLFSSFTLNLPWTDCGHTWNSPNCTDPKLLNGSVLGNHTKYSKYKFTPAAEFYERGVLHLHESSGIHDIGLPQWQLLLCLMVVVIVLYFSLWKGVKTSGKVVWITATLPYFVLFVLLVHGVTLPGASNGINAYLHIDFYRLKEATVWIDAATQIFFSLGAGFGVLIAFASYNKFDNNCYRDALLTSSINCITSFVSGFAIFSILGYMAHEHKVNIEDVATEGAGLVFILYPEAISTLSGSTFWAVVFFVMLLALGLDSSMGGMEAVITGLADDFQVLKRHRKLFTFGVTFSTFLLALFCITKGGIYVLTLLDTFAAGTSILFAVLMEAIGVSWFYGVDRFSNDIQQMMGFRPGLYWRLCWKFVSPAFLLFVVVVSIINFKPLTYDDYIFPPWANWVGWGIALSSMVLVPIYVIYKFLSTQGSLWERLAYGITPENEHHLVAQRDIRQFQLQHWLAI
Adrenergic α1B, sequence (P15823 whole entry): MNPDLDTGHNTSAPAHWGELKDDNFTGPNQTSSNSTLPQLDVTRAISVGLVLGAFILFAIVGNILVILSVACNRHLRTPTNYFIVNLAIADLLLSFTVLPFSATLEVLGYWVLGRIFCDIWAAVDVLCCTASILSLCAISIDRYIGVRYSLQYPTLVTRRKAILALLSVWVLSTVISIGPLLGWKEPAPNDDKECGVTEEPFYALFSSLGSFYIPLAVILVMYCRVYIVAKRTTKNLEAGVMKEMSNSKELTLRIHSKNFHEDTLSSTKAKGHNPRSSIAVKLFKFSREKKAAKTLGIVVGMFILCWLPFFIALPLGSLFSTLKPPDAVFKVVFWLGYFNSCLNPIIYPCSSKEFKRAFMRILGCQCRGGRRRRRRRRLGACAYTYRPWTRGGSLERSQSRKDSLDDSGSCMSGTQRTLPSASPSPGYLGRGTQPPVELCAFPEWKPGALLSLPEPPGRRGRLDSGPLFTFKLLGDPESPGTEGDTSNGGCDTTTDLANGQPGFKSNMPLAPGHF
Dopamine D1, sequence (P21728 whole entry): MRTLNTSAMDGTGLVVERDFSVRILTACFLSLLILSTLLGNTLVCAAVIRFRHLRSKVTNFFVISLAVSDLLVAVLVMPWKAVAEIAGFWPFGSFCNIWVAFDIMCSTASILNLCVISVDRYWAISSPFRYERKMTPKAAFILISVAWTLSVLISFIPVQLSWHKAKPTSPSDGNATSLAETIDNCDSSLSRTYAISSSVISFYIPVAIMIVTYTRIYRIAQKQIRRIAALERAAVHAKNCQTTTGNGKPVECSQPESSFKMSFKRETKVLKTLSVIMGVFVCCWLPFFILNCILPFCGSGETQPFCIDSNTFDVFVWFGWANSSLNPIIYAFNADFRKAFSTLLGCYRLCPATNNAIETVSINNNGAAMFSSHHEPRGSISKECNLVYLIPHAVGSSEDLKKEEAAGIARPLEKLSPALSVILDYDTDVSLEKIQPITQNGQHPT
Calcium Channel N-Type, sequence (Q02294 whole entry): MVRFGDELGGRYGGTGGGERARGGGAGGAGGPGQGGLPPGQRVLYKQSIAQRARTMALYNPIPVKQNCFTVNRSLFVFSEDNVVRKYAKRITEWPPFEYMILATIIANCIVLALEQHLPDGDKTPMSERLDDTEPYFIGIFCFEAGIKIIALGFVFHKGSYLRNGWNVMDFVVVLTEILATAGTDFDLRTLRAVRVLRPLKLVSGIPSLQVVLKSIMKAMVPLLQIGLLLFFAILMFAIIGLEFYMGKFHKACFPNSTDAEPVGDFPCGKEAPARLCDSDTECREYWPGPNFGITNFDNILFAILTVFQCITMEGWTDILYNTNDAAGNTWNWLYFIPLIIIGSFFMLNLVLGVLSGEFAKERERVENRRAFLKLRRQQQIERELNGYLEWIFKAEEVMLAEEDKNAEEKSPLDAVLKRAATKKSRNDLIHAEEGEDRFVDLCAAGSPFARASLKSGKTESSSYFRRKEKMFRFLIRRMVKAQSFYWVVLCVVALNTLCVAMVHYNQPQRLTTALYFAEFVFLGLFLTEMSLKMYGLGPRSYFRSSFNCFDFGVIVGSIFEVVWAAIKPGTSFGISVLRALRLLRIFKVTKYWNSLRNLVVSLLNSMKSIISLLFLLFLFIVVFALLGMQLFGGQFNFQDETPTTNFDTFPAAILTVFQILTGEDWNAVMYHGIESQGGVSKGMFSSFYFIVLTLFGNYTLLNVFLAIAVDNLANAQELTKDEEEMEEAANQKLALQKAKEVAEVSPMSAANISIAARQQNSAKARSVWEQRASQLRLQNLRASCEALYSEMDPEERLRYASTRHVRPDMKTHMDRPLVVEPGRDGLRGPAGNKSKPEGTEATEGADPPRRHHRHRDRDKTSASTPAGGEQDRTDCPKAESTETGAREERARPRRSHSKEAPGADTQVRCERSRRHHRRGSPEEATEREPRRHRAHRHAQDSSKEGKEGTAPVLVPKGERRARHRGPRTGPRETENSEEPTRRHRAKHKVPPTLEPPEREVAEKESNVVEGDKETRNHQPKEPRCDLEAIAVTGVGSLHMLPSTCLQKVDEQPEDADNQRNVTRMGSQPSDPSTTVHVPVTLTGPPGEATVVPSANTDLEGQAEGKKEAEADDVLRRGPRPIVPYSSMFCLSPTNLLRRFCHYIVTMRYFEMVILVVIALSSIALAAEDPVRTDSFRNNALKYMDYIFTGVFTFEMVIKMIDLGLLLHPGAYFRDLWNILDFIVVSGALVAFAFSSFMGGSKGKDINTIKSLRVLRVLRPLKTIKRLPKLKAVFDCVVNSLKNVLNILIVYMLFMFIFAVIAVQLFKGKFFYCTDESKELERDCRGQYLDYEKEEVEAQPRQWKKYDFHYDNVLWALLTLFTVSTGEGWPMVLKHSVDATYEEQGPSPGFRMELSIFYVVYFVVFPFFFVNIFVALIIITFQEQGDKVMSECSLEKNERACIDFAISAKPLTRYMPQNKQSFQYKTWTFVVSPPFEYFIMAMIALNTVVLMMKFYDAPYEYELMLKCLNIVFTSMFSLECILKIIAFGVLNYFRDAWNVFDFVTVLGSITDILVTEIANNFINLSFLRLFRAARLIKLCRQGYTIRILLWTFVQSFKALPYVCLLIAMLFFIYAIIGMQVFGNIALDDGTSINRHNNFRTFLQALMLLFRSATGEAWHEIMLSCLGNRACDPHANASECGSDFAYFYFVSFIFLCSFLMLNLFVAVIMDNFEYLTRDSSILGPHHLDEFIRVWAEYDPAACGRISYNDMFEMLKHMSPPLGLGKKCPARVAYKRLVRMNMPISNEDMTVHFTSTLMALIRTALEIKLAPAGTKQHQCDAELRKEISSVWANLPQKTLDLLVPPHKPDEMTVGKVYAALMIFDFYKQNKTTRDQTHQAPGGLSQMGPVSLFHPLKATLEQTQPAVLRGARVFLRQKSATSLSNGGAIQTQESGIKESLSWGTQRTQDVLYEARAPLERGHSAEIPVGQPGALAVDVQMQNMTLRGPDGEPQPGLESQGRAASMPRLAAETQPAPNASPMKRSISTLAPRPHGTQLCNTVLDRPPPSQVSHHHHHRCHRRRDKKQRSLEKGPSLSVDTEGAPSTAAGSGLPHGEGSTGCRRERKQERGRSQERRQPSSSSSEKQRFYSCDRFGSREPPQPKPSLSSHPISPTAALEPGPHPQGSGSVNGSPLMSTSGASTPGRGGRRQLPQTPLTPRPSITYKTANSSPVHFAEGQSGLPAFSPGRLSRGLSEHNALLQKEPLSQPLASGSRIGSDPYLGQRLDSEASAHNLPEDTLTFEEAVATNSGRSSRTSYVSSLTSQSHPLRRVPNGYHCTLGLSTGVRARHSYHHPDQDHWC

| SMILES | AUC(0-inf) ([3]; iv, I.V, 2 mg/kg) | AUC(0-t) ([3]; iv, I.V, 2 mg/kg) | clearance ([3]; iv, I.V, 2 mg/kg) | half-life ([3]; iv, I.V, 2 mg/kg) | Vd ([3]; iv, I.V, 2 mg/kg) | bioavailability ([3]; po) | AUC(0-inf) ([3]; po, P.O, 4 mg/kg) | AUC(0-t) ([3]; po, P.O, 4 mg/kg) | Cmax ([3]; po, P.O, 4 mg/kg) | Tmax ([3]; po, P.O, 4 mg/kg) | half-life ([3]; po, P.O, 4 mg/kg) | also measured |
| --- | --- | --- | --- | --- | --- | --- | --- | --- | --- | --- | --- | --- |
| Nc1ccc(-c2ccc3ncc4c(=O)[nH]c(=O)n(-c5cccc(C(F)(F)F)c5)c4c3n2)cn1 [Compound 5, 9-(6-aminopyridin-3-yl)-1-(3-(trifluoromethyl)phenyl)pyrimido[5,4-c][1,5]naphthyridine-2,4(1H,3H)-dione] | 9360 ng·h/mL | 9130 ng·h/mL | 3.5 mL/min/kg | 4.72 h | 1.26 L/kg | 14% | 2590 ng·h/mL | 2550 ng·h/mL | 205 ng/mL | 6 h | 5.77 h | inhibition at 10 µM (Melatonin MT1): 17%; inhibition at 10 µM (Dopamine D1): 21%; Inhibitory rate (%), Nicotinic Acetylcholine (Nicotinic Acetylcholine): 7%; Inhibitory rate (%), Purinergic P2Y (Purinergic P2Y): 9%; inhibition at 10 µM [1]: -5%; inhibition at 10 µM (Adrenergic α2A): 19%; inhibition at 10 µM (Calcium Channel N-Type): -22%; inhibition at 10 µM (Adrenergic α1B): 21%; inhibition at 10 µM (Opiate κ(OP2, KOP)): 10%; inhibitory rates on the listed non-kinase drug target ligands [2]: less than 50%; inhibition at 10 µM (Histamine H3): 16% |
| O=c1[nH]c(=O)n(-c2cccc(C(F)(F)F)c2)c2c1cnc1ccc(-c3cnc4[nH]ccc4c3)nc12 [Compound 30, 9-(1H-pyrrolo[2,3-b]pyridin-5-yl)-1-(3-(trifluoromethyl)phenyl)pyrimido[5,4-c][1,5]naphthyridine-2,4(1H,3H)-dione] | 3070 ng·h/mL | 3050 ng·h/mL | 11 mL/min/kg | 3.89 h | 1.85 L/kg | 12.8% | 785 ng·h/mL | 654 ng·h/mL | 54.8 ng/mL | 2 h | 9.42 h |  |
